Measured values reported in patent publication US10988477B2 (Merck Patent GmbH, priority 2018, dated 2021).
pIC50, pKi: −log10 of the molar value.

How the values were obtained:
GCN2 kinase = GCN2 kinase (Homo sapiens, UniProt Q9P2K8); assay: GCN2 enzyme inhibition assay (Transcreener ADP2 fluorescence polarization); assay type: biochemical; conditions: 280 μM ATP
Outline: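 ADP formation read by Transcreener FP after a 1 h, 25 °C kinase reaction containing 280 μM ATP, 200 μM (RS)7 substrate and 4 nM GCN2, pH 7.5 Tris buffer. Compounds (0–8 μM final) were added 10 min before ATP. Percent inhibition gave IC50 and apparent Ki via tight-binding fit.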

[1] = molecular target: intracellular GCN2 (phosphorylation of the GCN2 substrate eIF2α) (Homo sapiens, UniProt Q9P2K8); assay: GCN2 cellular inhibition assay (AlphaScreen SureFire P-eIF2α Ser51, borrelidin-treated U2OS cells); assay type: cell-based; conditions: biomarker assay, phosphorylated eIF2α Ser51 in borrelidin-treated U2OS cells
Outline: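 Phospho-eIF2α (Ser51) in lysates was quantified by AlphaScreen SureFire after a 1 h, 37 °C treatment of U2OS cells with 10 μM borrelidin and compound at 4-fold dilutions starting from 40 μM final. Inhibition expressed in percent against wells stimulated by borrelidin alone.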

[2] = Enzyme activity for compounds of Formula IV, Ki(app), 25° C.
[3] = compounds of Formula II, 4 nM GCN2 kinase

Chain of intracellular GCN2 (phosphorylation of the GCN2 substrate eIF2α) (Q9P2K8 whole entry): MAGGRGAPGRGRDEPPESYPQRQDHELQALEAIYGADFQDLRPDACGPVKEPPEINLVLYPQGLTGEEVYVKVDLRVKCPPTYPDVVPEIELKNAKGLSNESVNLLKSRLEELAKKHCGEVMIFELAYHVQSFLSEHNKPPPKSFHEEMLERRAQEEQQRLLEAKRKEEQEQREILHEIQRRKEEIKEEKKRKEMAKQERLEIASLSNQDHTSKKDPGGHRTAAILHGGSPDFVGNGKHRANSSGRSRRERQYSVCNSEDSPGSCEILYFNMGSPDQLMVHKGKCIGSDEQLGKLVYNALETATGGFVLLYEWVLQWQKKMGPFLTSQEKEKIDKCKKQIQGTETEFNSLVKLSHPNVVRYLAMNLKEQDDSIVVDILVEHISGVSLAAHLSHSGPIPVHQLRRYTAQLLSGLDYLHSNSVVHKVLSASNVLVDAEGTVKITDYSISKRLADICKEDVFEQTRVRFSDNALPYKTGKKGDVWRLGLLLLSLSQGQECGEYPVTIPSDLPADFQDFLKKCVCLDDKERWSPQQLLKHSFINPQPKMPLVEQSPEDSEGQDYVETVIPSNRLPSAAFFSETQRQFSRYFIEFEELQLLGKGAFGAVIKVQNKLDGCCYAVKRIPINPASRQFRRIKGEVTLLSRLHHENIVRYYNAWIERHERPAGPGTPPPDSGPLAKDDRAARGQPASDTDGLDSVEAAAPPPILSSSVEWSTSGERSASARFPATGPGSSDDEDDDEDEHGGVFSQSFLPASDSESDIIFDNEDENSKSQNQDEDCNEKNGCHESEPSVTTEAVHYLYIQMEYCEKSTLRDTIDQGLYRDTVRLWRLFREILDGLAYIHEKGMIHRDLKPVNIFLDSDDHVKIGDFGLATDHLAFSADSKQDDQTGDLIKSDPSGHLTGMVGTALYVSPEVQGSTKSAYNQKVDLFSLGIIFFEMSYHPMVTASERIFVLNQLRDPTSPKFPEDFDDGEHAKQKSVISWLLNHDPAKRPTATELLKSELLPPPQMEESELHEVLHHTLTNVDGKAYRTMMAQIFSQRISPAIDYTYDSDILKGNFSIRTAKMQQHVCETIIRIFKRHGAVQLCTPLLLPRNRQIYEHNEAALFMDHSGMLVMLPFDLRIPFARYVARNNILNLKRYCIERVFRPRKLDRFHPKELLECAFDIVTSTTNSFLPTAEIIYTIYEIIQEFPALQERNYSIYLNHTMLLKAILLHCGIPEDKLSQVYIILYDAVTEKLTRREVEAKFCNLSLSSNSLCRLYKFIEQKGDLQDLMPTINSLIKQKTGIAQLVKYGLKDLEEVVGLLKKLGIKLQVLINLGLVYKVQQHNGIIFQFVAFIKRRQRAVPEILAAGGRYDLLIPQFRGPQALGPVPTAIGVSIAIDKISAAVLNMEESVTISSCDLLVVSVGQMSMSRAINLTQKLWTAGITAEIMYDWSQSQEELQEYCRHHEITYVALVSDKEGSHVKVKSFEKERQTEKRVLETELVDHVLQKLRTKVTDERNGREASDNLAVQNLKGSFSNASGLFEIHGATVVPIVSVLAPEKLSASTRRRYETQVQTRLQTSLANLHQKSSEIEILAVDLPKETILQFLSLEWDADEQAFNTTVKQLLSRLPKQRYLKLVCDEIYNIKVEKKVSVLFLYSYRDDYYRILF
Chain of GCN2 kinase (Q9P2K8 whole entry): as above

With `CS(=N)(=O)CC1CCCN(c2ccnc(-c3cnc4cnc(C(F)(F)F)cn34)n2)C1` (stereo not drawn) [IV-34, Imino(methyl)((1-(2-(6-(trifluoromethyl)imidazo[1,2-a]pyrazin-3-yl)pyrimidin-4-yl)piperidin-3-yl)methyl)-λ^6-sulfanone] as the compound, how does the pKi (GCN2 kinase; [2]) read?
The pKi was 6.00 to 7.00.

And the pIC50 ([1]; compounds of Formula IV)?
The pIC50 was less than 5.30.

Which results are given for `O=C1NCC2(CCCN(c3ccnc(-c4cnc5cnc(C(F)F)cn45)n3)CC2)O1` (stereo not drawn) [IV-87, 8-(2-(6-(Difluoromethyl)imidazo[1,2-a]pyrazin-3-yl)pyrimidin-4-yl)-1-oxa-3,8-diazaspiro[4.6]undecan-2-one]?
pKi (GCN2 kinase; [2]): 6.00 to 7.00; pIC50 ([1]; compounds of Formula IV): < 5.30

`CS(=O)(=O)Nc1cccc(-c2ccnc(-c3cnc4cnc(C(F)F)cn34)n2)c1` [IV-147, N-(3-(2-(6-(Difluoromethyl)imidazo[1,2-a]pyrazin-3-yl)pyrimidin-4-yl)phenyl)methanesulfonamide] was tested. Which pKi (GCN2 kinase; [2]) did it give?
The pKi was 6.00 to 7.00.

What about the pIC50 ([1]; compounds of Formula IV) of the same compound?
Its pIC50 is less than 5.30.

`CC(=O)N1CCN(c2cc(-c3cnc4ccc(OC(F)F)nn34)ccn2)CC1` [II-182, 1-(4-(4-(6-(Difluoromethoxy)imidazo[1,2-b]pyridazin-3-yl)pyridin-2-yl)piperazin-1-yl)ethanone] was tested. Which pKi (GCN2 kinase; [3]) did it give?
Its pKi is 6.00 to 8.00.

And the pIC50 ([1]; compounds of Formula II)?
The pIC50 was less than 5.30.

With `CC1CN(c2ccnc(-c3cnc4cnc(C(F)(F)F)cn34)n2)CC(c2cn[nH]c2Cl)N1` (single isomer, unassigned) [IV-651, 3-[4-[3-(5-Chloro-1H-pyrazol-4-yl)-5-methyl-piperazin-1-yl]pyrimidin-2-yl]-6-(trifluoromethyl)imidazo[1,2-a]pyrazine] as the compound, how does the pKi (GCN2 kinase; [2]) read?
The pKi was greater than 8.00.

And the pIC50 ([1]; compounds of Formula IV)?
The pIC50 was greater than 6.30.

Which results are given for `CNc1cc(N2CCCC(CNS(C)(=O)=O)C2)cc(-c2cnc3ccc(C(F)F)nn23)n1` (stereo not drawn) [II-60, N-((1-(2-(6-(Difluoromethyl)imidazo[1,2-b]pyridazin-3-yl)-6-(methylamino)pyridin-4-yl)piperidin-3-yl)methyl)methanesulfonamide]?
pKi (GCN2 kinase; [3]): > 8.00; pIC50 ([1]; compounds of Formula II): > 6.30

How did the pKi (GCN2 kinase; [2]) turn out when `CC1CN(c2ccnc(-c3cnc4cnc(C(F)(F)F)cn34)n2)CC(c2cn[nH]c2)O1` (single isomer, unassigned) [IV-13, 2-Methyl-6-(1H-pyrazol-4-yl)-4-(2-(6-(trifluoromethyl)imidazo[1,2-a]pyrazin-3-yl)pyrimidin-4-yl)morpholine] was run?
Its pKi is 7.00 to 8.00.

And the pIC50 ([1]; compounds of Formula IV)?
The pIC50 was greater than 6.30.

`CNc1cc(-c2cnc3ccc(C(F)F)nn23)cc(N2CC(C)C(F)(F)C(CNS(C)(=O)=O)C2)n1` (stereo not drawn) [II-64, N-((1-(4-(6-(Difluoromethyl)imidazo[1,2-b]pyridazin-3-yl)-6-(methylamino)pyridin-2-yl)-4,4-difluoro-5-methylpiperidin-3-yl)methyl)methanesulfonamide] was tested. Which pKi (GCN2 kinase; [3]) did it give?
The pKi was greater than 8.00.

And the pIC50 ([1]; compounds of Formula II)?
The pIC50 was greater than 6.30.

Which results are given for `O=C1COC2(CN1)COCCN(c1cc(-c3cnc4ccc(C(F)F)nn34)ncn1)C2` (stereo not drawn) [II-309, 11-(6-(6-(Difluoromethyl)imidazo[1,2-b]pyridazin-3-yl)pyrimidin-4-yl)-1,8-dioxa-4,11-diazaspiro[5.6]dodecan-3-one]?
pKi (GCN2 kinase; [3]): < 6.00; pIC50 ([1]; compounds of Formula II): < 5.30

`C[C@H]1[C@@H](C(=O)O)CCCN1c1ccnc(-c2cnc3cnc(C(F)F)cn23)n1` (racemic) [IV-110, Cis-1-(2-(6-(Difluoromethyl)imidazo[1,2-a]pyrazin-3-yl)pyrimidin-4-yl)-2-methylpiperidine-3-carboxylic acid] was tested. Which pKi (GCN2 kinase; [2]) did it give?
The pKi was 6.00 to 7.00.

And the pIC50 ([1]; compounds of Formula IV)?
The pIC50 was less than 5.30.

How did the pKi (GCN2 kinase; [2]) turn out when `FC(F)(F)c1cn2c(-c3nccc(N4CCCC(n5ccnn5)C4)n3)cnc2cn1` (stereo not drawn) [IV-493, 3-(4-(3-(1H-1,2,3-Triazol-1-yl)piperidin-1-yl)pyrimidin-2-yl)-6-(trifluoromethyl)imidazo[1,2-a]pyrazine] was run?
Its pKi is 7.00 to 8.00.

And the pIC50 ([1]; compounds of Formula IV)?
Its pIC50 is less than 5.30.

With `NC(=O)C1CN(c2cc(-c3cnc4ccc(C(F)F)nn34)ncn2)CCO1` (stereo not drawn) [II-50, 4-(6-(6-(Difluoromethyl)imidazo[1,2-b]pyridazin-3-yl)pyrimidin-4-yl)morpholine-2-carboxamide] as the compound, how does the pKi (GCN2 kinase; [3]) read?
Its pKi is 6.00 to 8.00.

And the pIC50 ([1]; compounds of Formula II)?
Its pIC50 is 5.30 to 6.30.
